Laboratory results published in PMC5039751, “Profiling of core fucosylated N-glycans using a novel bacterial lectin that specifically recognizes α1,6 fucosylated chitobiose” (Scientific Reports, 2016).

How the values were obtained:
SL2-1 [1] = molecular target: T1, SL2-1 (Streptomyces rapamycinicus, UniProt A0ABR6LWE4); test: isothermal titration calorimetry; assay type: binding; conditions: 20 mM sodium phosphate pH 7.4, 25 °C
T1 construct: gene BJY27_006859; monomer with three ~40-residue repeats
T1 sequence (A0ABR6LWE4 31-188): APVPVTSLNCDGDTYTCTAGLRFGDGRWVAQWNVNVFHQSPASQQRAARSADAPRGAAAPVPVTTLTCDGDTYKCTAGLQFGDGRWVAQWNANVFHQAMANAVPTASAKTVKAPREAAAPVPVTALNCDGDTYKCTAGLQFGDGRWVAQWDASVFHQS
From the text: isothermal titration calorimetry on SL2-1

SL2-1 [2] = molecular target: T1, SL2-1; test: lectin capture in Microcon-30 filter, UPLC-HILIC-FLR; assay type: binding; conditions: labelled compound (2-AB); mixture of four glycans, 4 pmol each, 20 μg SL2-1, 10 mM Tris-HCl pH 8.0, room temperature; proteinase K elution

CC(=O)N[C@H]1[C@H](O[C@H]2[C@H](O)[C@@H](NC(C)=O)C(O)O[C@@H]2CO[C@@H]2O[C@@H](C)[C@@H](O)[C@@H](O)[C@@H]2O)O[C@H](CO)[C@@H](O[C@@H]2O[C@H](CO[C@H]3O[C@H](CO)[C@@H](O)[C@H](O)[C@@H]3O[C@@H]3O[C@H](CO)[C@@H](O[C@@H]4O[C@H](CO[C@]5(C(=O)O)C[C@H](O)[C@@H](NC(C)=O)[C@H]([C@H](O)[C@H](O)CO)O5)[C@H](O)[C@H](O)[C@H]4O)[C@H](O)[C@H]3NC(C)=O)[C@@H](O)[C@H](O[C@H]3O[C@H](CO)[C@@H](O)[C@H](O)[C@@H]3O[C@@H]3O[C@H](CO)[C@@H](O[C@@H]4O[C@H](CO)[C@H](O)[C@H](O)[C@H]4O)[C@H](O)[C@H]3NC(C)=O)[C@@H]2O)[C@@H]1O (stereo partly shown) [A1F, monosialo-fucosylated biantennary N-glycan]
Kd (SL2-1 [1]; n = 1.85): 1060 nM

CC(=O)N[C@H]1[C@H](O[C@@H]([C@H](O)[C@H](CNc2ccccc2C(N)=O)NC(C)=O)[C@H](O)CO[C@@H]2O[C@@H](C)[C@@H](O)[C@@H](O)[C@@H]2O)O[C@H](CO)[C@@H](O[C@@H]2O[C@H](CO[C@H]3O[C@H](CO)[C@@H](O)[C@H](O)[C@@H]3O)[C@@H](O)[C@H](O[C@H]3O[C@H](CO)[C@@H](O)[C@H](O)[C@@H]3O)[C@@H]2O)[C@@H]1O [M3N2F, 2-aminobenzamide (2-AB)-labeled trimannosyl core N-glycan (paucimannose) with core α1-6 fucose]
% of total loaded recovered from lectin-bound fraction (SL2-1 [2]): 91%

CC(=O)N[C@H]1[C@H](O[C@H]2[C@H](O)[C@@H](NC(C)=O)C(O)O[C@@H]2CO[C@@H]2O[C@@H](C)[C@@H](O)[C@@H](O)[C@@H]2O)O[C@H](CO)[C@@H](O)[C@@H]1O (stereo partly drawn) [N2F, α1-6 fucosylated chitobiose]
Kd (SL2-1 [1]; n = 2.01): 1590 nM

CC(=O)N[C@H]1[C@H](O[C@@H]([C@H](O)[C@H](CNc2ccccc2C(N)=O)NC(C)=O)[C@H](O)CO[C@@H]2O[C@@H](C)[C@@H](O)[C@@H](O)[C@@H]2O)O[C@H](CO)[C@@H](O[C@@H]2O[C@H](CO[C@H]3O[C@H](CO)[C@@H](O)[C@H](O)[C@@H]3O[C@@H]3O[C@H](CO)[C@@H](O[C@@H]4O[C@H](CO)[C@H](O)[C@H](O)[C@H]4O)[C@H](O)[C@H]3NC(C)=O)[C@@H](O)[C@H](O[C@H]3O[C@H](CO)[C@@H](O)[C@H](O)[C@@H]3O[C@@H]3O[C@H](CO)[C@@H](O[C@@H]4O[C@H](CO)[C@H](O)[C@H](O)[C@H]4O)[C@H](O)[C@H]3NC(C)=O)[C@@H]2O)[C@@H]1O [NA2F, 2-aminobenzamide (2-AB)-labeled asialo-, galactosylated biantennary N-glycan with core α1-6 fucose]
% of total loaded recovered from lectin-bound fraction (SL2-1 [2]): 95%
